Measured values reported in paper PMC7364574 (ACS Omega, 2020).

Experiments:
c-Met kinase = c-Met kinase (Homo sapiens, UniProt P08581); assay: c-Met tyrosine kinase mobility shift assay; format: biochemical; conditions: IC50 (μM) c-Met
A549 cells [1] = assay: Acridine orange; format: cell-based; conditions: A549, 0.50 μM, 8 h
A549 cells [2] = assay: Apoptosis analysis by flow cytometry; format: cell-based; conditions: 24 h, control 5.16%
A549 cells [3] = assay: Cell cycle distribution analysis by flow cytometry; format: cell-based; conditions: 24 h, control 56.06%

Sequence of c-Met kinase (P08581 25-1390): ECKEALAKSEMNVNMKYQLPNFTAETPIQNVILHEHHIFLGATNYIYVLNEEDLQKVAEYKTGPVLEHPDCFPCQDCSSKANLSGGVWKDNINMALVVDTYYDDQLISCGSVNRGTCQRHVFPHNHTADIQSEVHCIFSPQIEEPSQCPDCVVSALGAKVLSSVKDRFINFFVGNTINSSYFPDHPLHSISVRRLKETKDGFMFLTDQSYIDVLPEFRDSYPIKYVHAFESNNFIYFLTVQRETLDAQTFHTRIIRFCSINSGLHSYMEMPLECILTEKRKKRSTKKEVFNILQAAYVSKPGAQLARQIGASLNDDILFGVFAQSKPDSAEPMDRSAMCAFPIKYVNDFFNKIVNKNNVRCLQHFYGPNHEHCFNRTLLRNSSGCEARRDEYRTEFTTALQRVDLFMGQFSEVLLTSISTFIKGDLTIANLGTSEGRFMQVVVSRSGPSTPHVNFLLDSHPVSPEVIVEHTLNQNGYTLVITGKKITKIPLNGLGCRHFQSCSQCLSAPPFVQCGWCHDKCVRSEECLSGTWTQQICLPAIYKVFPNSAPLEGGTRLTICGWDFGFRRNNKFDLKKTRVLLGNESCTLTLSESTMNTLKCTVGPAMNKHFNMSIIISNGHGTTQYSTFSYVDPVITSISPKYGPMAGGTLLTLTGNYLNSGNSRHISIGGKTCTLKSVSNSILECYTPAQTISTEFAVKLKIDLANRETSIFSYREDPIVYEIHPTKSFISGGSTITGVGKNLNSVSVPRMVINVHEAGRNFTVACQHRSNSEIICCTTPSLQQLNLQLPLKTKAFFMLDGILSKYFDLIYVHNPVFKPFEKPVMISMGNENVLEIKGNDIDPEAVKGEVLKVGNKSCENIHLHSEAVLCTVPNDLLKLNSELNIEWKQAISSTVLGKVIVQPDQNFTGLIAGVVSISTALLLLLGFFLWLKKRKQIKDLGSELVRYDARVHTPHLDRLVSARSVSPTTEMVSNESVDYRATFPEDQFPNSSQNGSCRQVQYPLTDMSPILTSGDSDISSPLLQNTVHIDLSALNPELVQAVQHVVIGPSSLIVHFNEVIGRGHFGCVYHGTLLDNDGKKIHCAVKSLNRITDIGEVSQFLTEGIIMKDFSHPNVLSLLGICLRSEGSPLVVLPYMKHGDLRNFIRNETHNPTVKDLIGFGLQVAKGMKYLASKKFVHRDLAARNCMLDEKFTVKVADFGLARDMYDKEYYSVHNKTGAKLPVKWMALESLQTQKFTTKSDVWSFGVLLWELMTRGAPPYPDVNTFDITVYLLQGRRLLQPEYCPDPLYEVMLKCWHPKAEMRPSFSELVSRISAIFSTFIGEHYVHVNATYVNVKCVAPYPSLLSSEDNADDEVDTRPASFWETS

Row | IC50 (c-Met kinase) [µM] | SMILES | induction of apoptosis, AO staining (A549 cells [1]) | total apoptosis rate (A549 cells [2]; A549, 3.75 μM) [%] | total apoptosis rate (A549 cells [2]; A549, 7.50 μM) [%] | total apoptosis rate (A549 cells [2]; A549, 15.00 μM) [%] | G0/G1 phase population (A549 cells [3]; A549, 3.75 μM) [%] | G0/G1 phase population (A549 cells [3]; A549, 7.50 μM) [%] | G0/G1 phase population (A549 cells [3]; A549, 15.00 μM) [%]
1 | 0.09 to 0.21 | Cc1cc(Oc2ccc(NC(=O)c3cnn(-c4ccc(Cl)cc4)c3C(F)(F)F)cc2F)c2nncn2n1 [13b, 1-(4-Chlorophenyl)-N-(3-fluoro-4-((6-methyl-[1,2,4]triazolo[4,3-b]pyridazin-8-yl)oxy)phenyl)-5-(trifluoromethyl)-1H-pyrazole-4-carboxamide] | – | – | – | – | – | – | –
2 | 0.09 to 0.21 | Cc1cc(Oc2ccc(NC(=O)c3sc(-c4ccccn4)nc3C)cc2)c2nncn2n1 [12e, 4-Methyl-N-(4-((6-methyl-[1,2,4]triazolo[4,3-b]pyridazin-8-yl)oxy)phenyl)-2-(pyridin-2-yl)thiazole-5-carboxamide] | significant effect on inducing apoptosis | 13.73 | 24.87 | 35.87 | 60.25 | 66.32 | 76.84
